Measurements: article PMC6511062, “Preclinical candidate for the treatment of visceral leishmaniasis that acts through proteasome inhibition” (Proceedings of the National Academy of Sciences of the …, 2019)
Read-outs that look alike come from different tables or passages of the source.

Key:
[1] = molecular target: chymotrypsin-like activity of the L. donovani proteasome (Leishmania donovani, UniProt A0A3S7XA80+A0ACM8QMP6, G197C/T30A); test: biochemical
Procedure: (§1) An in vitro assay was developed that enabled the chymotrypsin-like activity and additional proteolytic activities associated with the proteasome to be directly monitored within proteasome-enriched parasite cell lysates. Likewise, human proteasome from two sources (i.e., commercially pure 26S and enriched proteasome fractions from THP-1 lysates) was tested using the same biochemical assays.
(§2) Proteasome enrichment by ultracentrifugation
(§3) The protocol described by Kisselev et al.34 was adapted to enrich the proteasomes present in L. donovani and THP1 crude extracts. L. donovani or THP1 cells were resuspended in sucrose buffer (50 mM Tris buffer pH 7.5, 5 mM Magnesium chloride, 1 mM EDTA, 50 mM NaCl, 250 mM sucrose, 2 mM ATP, 1 mM DTT) and lysed by nitrogen cavitation for 15 min (110 bars of 1500 psi). Lysates were centrifuged at 20,000g for 30 min at 4 °C and supernatants containing soluble protein were subjected to an ultracentrifugation step at 300,000g for 2h at 4 °C. The resulting proteasome-containing pellets were resuspended in sucrose buffer and left on ice for 30 min to complete solubilization. Samples were centrifuged for 10 min at 20,000 g to remove insoluble material. Proteins contained in supernatant (proteasome enriched fraction) were measured by Bradford.

[2] = molecular target: chymotrypsin-like activity of the L. donovani proteasome (Leishmania donovani, UniProt A0A3S7XA80+A0ACM8QMP6); test: biochemical
Chain of chymotrypsin-like activity of the L. donovani proteasome (Leishmania donovani, UniProt A0A3S7XA80+A0ACM8QMP6) (A0ACM8QMP6 100-302): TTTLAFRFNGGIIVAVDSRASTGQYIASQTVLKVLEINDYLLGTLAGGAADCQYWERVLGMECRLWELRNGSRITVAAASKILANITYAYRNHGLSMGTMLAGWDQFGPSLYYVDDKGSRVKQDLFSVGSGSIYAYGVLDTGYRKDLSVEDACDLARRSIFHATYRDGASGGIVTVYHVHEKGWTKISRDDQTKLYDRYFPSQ
Chain of chymotrypsin-like activity of the L. donovani proteasome (Leishmania donovani, UniProt A0A3S7XA80+A0ACM8QMP6) (A0A3S7XA80 1-206): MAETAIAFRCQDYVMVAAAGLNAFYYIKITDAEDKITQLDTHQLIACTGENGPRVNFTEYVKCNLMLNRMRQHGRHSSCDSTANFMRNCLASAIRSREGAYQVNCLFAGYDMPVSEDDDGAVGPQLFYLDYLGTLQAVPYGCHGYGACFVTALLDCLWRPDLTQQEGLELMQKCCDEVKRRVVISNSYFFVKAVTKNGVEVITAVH
Procedure: as §1, §2, §3

[3] = test system: clinically-relevant Leishmania strains; test: Activity in clinically-relevant Leishmania strains; format: cell-based
Source text: Strain Leishmania EC50 (µM) Host Cell EC50 (µM)
Results from one or two (both values shown) biological replicates. […]

[4] = test system: caspase activity of the L. donovani proteasome; test: Proteasome activity assay, caspase-like, L. donovani; format: biochemical, Leishmania donovani
Procedure: k. Proteasome activity assays
Compounds were dispensed into black 384-well assay plates (Greiner) by acoustic dispensing (LabCyte ECHO). For potency determinations, eleven-point, one in three dilution curves were generated, with a top concentration of 100 µM. Three proteasome activities were measured using a commercially available indirect enzyme-based luminescent assay kit (Promega) with Suc-LLVY-aminoluciferin, Z-LRR-aminoluciferin and Z-nLPnLD-aminoluciferin used as substrates for chymotrypsin-like, trypsin-like and caspase-like activities, respectively. In addition to proteasome samples: L. donovani and THP1-enriched proteasomes, commercially available human purified 26S proteasome (Boston Biochem) was also assessed. Proteasome final assay concentration were 0.025 mg/ml for L. donovani and THP1-enriched proteasomes and 1 nM for human purified 26S proteasome. Proteasome solution was added to the plates containing the compounds one hour before adding the proteasome substrate solution.
Substrate solution was then added and after 30 min of incubation luminescent signal was measured in an Envision reader (PerkinElmer).
Cultures of L. donovani axenic amastigotes were diluted to either 8 x 106 or 8 x 107 […]
value. […]
value) were used as negative and positive controls, respectively. […] Protein concentrations were determined by standard Bradford assays and Laemmli sample buffer was added to samples. […]

Chain of chymotrypsin-like activity of the L. donovani proteasome (Leishmania donovani, UniProt A0A3S7XA80+A0ACM8QMP6, G197C/T30A) (A0ACM8QMP6 entry or part of it, stated change not applied): as the sequence (A0ACM8QMP6 100-302) above
Chain of chymotrypsin-like activity of the L. donovani proteasome (Leishmania donovani, UniProt A0A3S7XA80+A0ACM8QMP6, G197C/T30A) (A0A3S7XA80 whole entry, stated change not applied): as the sequence (A0A3S7XA80 1-206) above

## O=C(Nc1ccc(F)c(-c2ccn3c(N4CCOCC4)cnc3n2)c1)N1CCCC1 [Compound 8]
[1]
  IC50: > 100 µM
[2]
  IC50: 0.16 ± 0.01 µM
[3]; Leishmania, in vitro, clinical strains incl. LV9, SUKA001, DD8-WT, BHU1, read-out: EC50 against clinical strains
  EC50: ~1 µM
[3]; Leishmania, strain MHOM/ET/67/HU3 (LV9), read-out: Leishmania EC50
  EC50: 0.4 µM
[3]; Leishmania, strain MHOM/IN/80/DD8, read-out: Leishmania EC50
  EC50: 1.6 µM
[3]; Leishmania, strain MHOM/IN/2002/BHU1, read-out: Leishmania EC50
  EC50: 0.6 µM
[3]; Leishmania, strain SUKA001, read-out: Leishmania EC50
  EC50: 0.5 µM
[3]; strain MHOM/ET/67/HU3 (LV9), read-out: Leishmania EC50
  EC50: 0.8 µM
[4]
  effect on caspase activity: no effect
